Tests used:
Plasmodium falciparum [1] = system: Plasmodium falciparum
Description: Antimalarial activity against CQ-sensitive Plasmodium falciparum NF54

DLD-1 = test: Antiproliferative activity against human DLD-1 cells; format: functional, cell-based
MCF7 = test: Antiproliferative activity against human MCF7 cells; format: functional, cell-based; conditions: Homo sapiens, MCF7
HeLa = test: Antiproliferative activity against human HeLa cells; format: functional, cell-based
[2] = target: T1, Tyrosine-protein kinase receptor UFO (Homo sapiens, UniProt P30530); test: Inhibition of AXL (unknown origin)
T1 sequence (P30530 whole entry): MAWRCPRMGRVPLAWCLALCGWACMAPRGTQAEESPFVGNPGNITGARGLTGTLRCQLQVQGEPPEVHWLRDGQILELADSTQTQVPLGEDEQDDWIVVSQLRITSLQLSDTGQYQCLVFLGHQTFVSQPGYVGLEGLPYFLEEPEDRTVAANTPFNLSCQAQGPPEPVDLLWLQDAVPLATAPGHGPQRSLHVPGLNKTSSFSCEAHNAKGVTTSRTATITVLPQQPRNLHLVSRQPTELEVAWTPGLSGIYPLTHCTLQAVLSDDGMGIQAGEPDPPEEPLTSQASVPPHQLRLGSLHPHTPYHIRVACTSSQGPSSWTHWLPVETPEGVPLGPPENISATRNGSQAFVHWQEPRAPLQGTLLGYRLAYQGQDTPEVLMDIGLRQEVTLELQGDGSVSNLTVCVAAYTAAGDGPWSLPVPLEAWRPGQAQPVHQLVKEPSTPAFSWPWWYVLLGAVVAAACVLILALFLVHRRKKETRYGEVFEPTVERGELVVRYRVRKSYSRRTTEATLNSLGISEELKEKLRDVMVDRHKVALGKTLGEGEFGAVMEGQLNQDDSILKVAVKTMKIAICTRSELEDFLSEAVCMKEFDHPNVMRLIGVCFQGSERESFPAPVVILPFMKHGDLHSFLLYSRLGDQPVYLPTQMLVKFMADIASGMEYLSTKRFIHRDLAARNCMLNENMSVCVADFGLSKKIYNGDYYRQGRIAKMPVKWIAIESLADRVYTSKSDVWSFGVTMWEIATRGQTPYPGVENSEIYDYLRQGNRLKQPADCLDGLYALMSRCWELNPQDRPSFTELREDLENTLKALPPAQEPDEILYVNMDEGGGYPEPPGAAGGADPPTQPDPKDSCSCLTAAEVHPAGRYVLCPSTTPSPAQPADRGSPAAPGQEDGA

[3] = Inhibition of PI3K (unknown origin); design: species or system Homo sapiens
[4] = Binding affinity to human nRNP
RPMI-8226 [5] = test: Induction of apoptosis in human RPMI-8226 cells assessed as fold increase in cytochrome c level; format: functional
RPMI-8226 [6] = test: Cytotoxicity against human RPMI-8226 cells; format: functional, cell-based
RPMI-8226 [7] = test: Induction of apoptosis in human RPMI-8226 cells assessed as fold increase in caspase-3 level; format: functional
HCT-116 = test: Cytotoxicity against human HCT-116 cells; format: functional, cell-based
SNU-423 = test: Antiproliferative activity against human SNU-423 cells; format: functional, cell-based
MDA-MB-453 = test: Antiproliferative activity against human MDA-MB-453 cells; format: functional, cell-based
RT-112 = test: Antiproliferative activity against human RT-112 cells; format: functional, cell-based
A549 = test: Cytotoxicity against human A549 cells; format: functional, cell-based
Plasmodium falciparum [8] = test: Antimalarial activity against multidrug resistant Plasmodium falciparum K1; format: functional, organism-based
Plasmodium falciparum [9] = test: Antimalarial activity against Plasmodium falciparum 3D7; format: functional, organism-based
Plasmodium falciparum [10] = test: Antimalarial activity against multidrug resistant Plasmodium falciparum Dd2; format: functional, organism-based
Plasmodium falciparum [11] = test: Antimalarial activity against CQ-sensitive Plasmodium falciparum D6; format: functional, organism-based
Plasmodium falciparum [12] = test: Antimalarial activity against CQ-sensitive Plasmodium falciparum 3D7; format: functional, organism-based
[13] = Cytotoxicity against african green monkey Vero cells; format: toxicity, cell-based; conditions: African green monkey (Chlorocebus sabaeus)
[14] = target: Lysine-specific demethylase 6B (Homo sapiens) (UniProt O15054); test: Inhibition of JMJD3 (unknown origin) at 25 uM relative to control
PC-3 = test: Antiproliferative activity against human PC-3 cells; format: functional, cell-based

Lysine-specific demethylase 6B (Homo sapiens), sequence (O15054 whole entry): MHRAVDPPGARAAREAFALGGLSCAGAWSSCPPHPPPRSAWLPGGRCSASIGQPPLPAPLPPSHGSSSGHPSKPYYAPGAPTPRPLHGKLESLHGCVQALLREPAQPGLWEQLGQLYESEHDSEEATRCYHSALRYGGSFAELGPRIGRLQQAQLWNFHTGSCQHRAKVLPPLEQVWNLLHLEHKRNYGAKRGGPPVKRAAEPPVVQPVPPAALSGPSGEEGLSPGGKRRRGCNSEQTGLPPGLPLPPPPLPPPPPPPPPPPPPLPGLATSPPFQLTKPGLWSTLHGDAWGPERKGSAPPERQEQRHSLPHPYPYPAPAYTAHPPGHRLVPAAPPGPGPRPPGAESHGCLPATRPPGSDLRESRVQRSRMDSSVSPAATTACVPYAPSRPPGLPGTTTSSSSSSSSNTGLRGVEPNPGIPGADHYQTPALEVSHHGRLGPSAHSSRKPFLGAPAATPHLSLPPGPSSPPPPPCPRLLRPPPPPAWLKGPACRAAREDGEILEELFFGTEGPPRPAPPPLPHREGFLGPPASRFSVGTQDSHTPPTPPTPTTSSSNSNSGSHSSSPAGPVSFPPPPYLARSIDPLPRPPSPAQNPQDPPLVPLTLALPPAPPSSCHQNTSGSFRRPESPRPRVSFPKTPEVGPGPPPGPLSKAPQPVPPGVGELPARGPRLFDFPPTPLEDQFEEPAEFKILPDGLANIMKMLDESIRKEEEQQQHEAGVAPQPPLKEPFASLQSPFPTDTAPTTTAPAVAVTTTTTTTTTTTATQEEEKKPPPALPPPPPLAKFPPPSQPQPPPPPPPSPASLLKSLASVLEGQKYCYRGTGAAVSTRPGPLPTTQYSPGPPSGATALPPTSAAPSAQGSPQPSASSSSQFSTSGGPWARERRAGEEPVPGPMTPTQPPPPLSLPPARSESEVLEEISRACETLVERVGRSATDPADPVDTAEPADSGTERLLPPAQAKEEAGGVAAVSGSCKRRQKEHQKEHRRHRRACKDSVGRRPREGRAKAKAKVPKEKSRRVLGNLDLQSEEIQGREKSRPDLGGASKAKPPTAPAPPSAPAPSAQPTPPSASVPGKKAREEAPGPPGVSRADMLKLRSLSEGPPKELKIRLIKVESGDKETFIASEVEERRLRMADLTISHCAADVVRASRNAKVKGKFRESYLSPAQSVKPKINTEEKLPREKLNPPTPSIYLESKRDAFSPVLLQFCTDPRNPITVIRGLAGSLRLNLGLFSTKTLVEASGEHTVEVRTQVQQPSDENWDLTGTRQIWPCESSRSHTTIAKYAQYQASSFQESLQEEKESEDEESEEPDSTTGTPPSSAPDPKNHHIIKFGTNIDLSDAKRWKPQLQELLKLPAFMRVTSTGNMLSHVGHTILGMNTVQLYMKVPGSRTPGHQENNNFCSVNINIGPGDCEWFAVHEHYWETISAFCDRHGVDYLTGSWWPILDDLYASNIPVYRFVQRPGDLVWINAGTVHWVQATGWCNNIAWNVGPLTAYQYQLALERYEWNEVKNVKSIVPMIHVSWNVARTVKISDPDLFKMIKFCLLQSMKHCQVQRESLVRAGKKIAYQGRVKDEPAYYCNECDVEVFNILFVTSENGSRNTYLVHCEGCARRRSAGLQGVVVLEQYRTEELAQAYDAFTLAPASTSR

Clc1ccc2c(N3CC(CN4CCOCC4)N=N3)ccnc2c1 (stereo not given) [listing 1 of 2 here]
IC50 (Plasmodium falciparum [1]): 4560 nM

CNC(=O)c1sc(N2N=C(c3ccc(C)cc3)CC2c2cc3cc(OC)ccc3nc2Cl)nc1C (stereo not given)
IC50 (DLD-1): 38 nM | IC50 (MCF7): 38 nM | IC50 (HeLa): 38 nM

COc1ccc2nc(Cl)c(C3CC(c4ccc(C)cc4)=NN3c3nc(C)c(/N=N/c4ccccc4)s3)cc2c1 (stereo not given)
IC50 (DLD-1): 38 nM | IC50 (MCF7): 38 nM | IC50 (HeLa): 38 nM

COc1cc2c(Oc3ccc(NS(=O)(=O)c4ccccc4OC(F)(F)F)cc3F)ccnc2cc1OCCCN1CCN(C)CC1
IC50 [2]: 27 nM

CC(=O)c1ccc(C#Cc2c(C3CC3)nc3ccccc3c2-c2ccc(F)cc2)cc1
IC50 [3]: 450 nM

O=C(/C=C/c1cc(N2CCOCC2)c2ccccc2n1)c1ccc(O)cc1
Kd [4]: 4600 nM

COc1nc2ccccc2cc1/C=[N+](\[O-])c1ccccc1
fold change (FC) (RPMI-8226 [5]): 4 | IC50 (RPMI-8226 [6]): 450 nM | fold change (FC) (RPMI-8226 [7]): 12 | IC50 (HCT-116): 450 nM

COc1cc(N(CCCSC(=S)N2CCN(CCO)CC2)S(=O)(=O)c2cccc3cccnc23)cc(OC)c1OC
IC50 (SNU-423): 700 nM | IC50 (MDA-MB-453): 700 nM | IC50 (RT-112): 700 nM

CSc1nc2ccccc2cc1/C=[N+](\[O-])c1ccccc1
fold change (FC) (RPMI-8226 [5]): 4 | IC50 (RPMI-8226 [6]): 450 nM | fold change (FC) (RPMI-8226 [7]): 12 | IC50 (HCT-116): 450 nM

NC(=O)c1cnc2ccc(-c3cnc4ccccc4c3)cc2c1Nc1ccc(N2CCNCC2)c(C(F)(F)F)c1
GI50 (A549): 2800 nM | GI50 (HCT-116): 2800 nM

COc1cc2c(Oc3ccc(NS(=O)(=O)c4ccccc4C(F)(F)F)cc3F)ccnc2cc1OCCCN1CCC(C)CC1
IC50 [2]: 21 nM

Clc1ccc2c(N3CC(CN4CCOCC4)N=N3)ccnc2c1 (stereo not given) [listing 2 of 2 here]
IC50 (Plasmodium falciparum [1]): 206 nM

CNS(=O)(=O)Nc1nccc(Cc2c(C)c3ccc(Oc4ncccn4)cc3oc2=O)c1F [AVUTOMETINIB]
GI50 (A549): 3230 nM

CCONC(=O)c1sc(N2N=C(c3ccc(C)cc3)CC2c2cc3cc(OC)ccc3nc2Cl)nc1C (stereo not given)
IC50 (DLD-1): 38 nM | IC50 (MCF7): 38 nM | IC50 (HeLa): 38 nM

COc1ccc2nc(O)c(/C=C/C(=O)c3ccc(C)cc3)cc2c1
IC50 (DLD-1): 38 nM | IC50 (MCF7): 38 nM | IC50 (HeLa): 38 nM

[O-]/[N+](=C\c1cc2ccccc2nc1SCc1ccccc1)c1ccccc1
fold change (FC) (RPMI-8226 [5]): 4 | IC50 (RPMI-8226 [6]): 450 nM | fold change (FC) (RPMI-8226 [7]): 12 | IC50 (HCT-116): 450 nM

Clc1ccc2c(N3CC(CN4CCCCC4)N=N3)ccnc2c1 (stereo not given) [listing 1 of 2 here]
IC50 (Plasmodium falciparum [1]): 206 nM

C#CCCCN(CCNc1ccnc2cc(Cl)ccc12)C(=O)CCC(=O)O[C@@H]1O[C@@H]2O[C@@]3(C)CC[C@H]4[C@H](C)CCC([C@H]1C)[C@@]24OO3 (stereo not given in full)
EC50 (Plasmodium falciparum [8]): 0.78 nM | EC50 (Plasmodium falciparum [9]): 0.78 nM | EC50 (Plasmodium falciparum [10]): 0.78 nM

COc1ccc2nc(Cl)c(C3CC(c4ccc(C)cc4)=NN3c3nc(-c4ccc(Cl)cc4)cs3)cc2c1 (stereo not given)
IC50 (DLD-1): 38 nM | IC50 (MCF7): 38 nM | IC50 (HeLa): 38 nM

Clc1ccc2c(N3CC(CN4CCCC4)N=N3)ccnc2c1 (stereo not given) [listing 1 of 2 here]
IC50 (Plasmodium falciparum [1]): 206 nM

Clc1ccc2c(N3CCN(CCCN4CCN(c5ccnc6cc(Cl)ccc56)CC4)CC3)ccnc2c1 [PIPERAQUINE]
IC50 (Plasmodium falciparum [10]): 1.5 nM | IC50 (Plasmodium falciparum [11]): 0.7 nM

COc1cc2nccc(Oc3ccc(NC(=O)Nc4ccc(F)cc4F)c(F)c3)c2cc1OC
IC50 [2]: 360 nM

O=C(O)c1cc(C#Cc2c(C3CC3)nc3ccccc3c2-c2ccc(F)cc2)ccc1Br
IC50 [3]: 450 nM

O=C(Cn1cc(-c2ccccc2)nn1)NCCCNc1ccnc2cc(Cl)ccc12
IC50 (Plasmodium falciparum [12]): 38.8 nM | IC50 [13]: > 5000 nM

COc1ccc(C(=O)/C=C/c2cc(N3CCOCC3)c3cc(OC)ccc3n2)cc1
Kd [4]: 4600 nM

COc1cc2c(Oc3ccc(NS(=O)(=O)c4cc(F)ccc4F)cc3F)ccnc2cc1OCCCN1CCCC(C)C1 (stereo not given)
IC50 [2]: 21 nM

COc1ccc(C(=O)/C=C/c2cc(N3CCOCC3)c3cc(F)ccc3n2)cc1
Kd [4]: 4600 nM

O=C(/C=C/c1cc(N2CCOCC2)c2cc(O)ccc2n1)c1ccc(Cl)cc1
Kd [4]: 20100 nM

C#CCCCC(C(=O)NCCOC(=O)CCC(=O)O[C@@H]1O[C@@H]2O[C@@]3(C)CC[C@H]4[C@H](C)CCC([C@H]1C)[C@@]24OO3)c1ccnc2cc(Cl)ccc12 (stereo not given in full)
EC50 (Plasmodium falciparum [8]): 0.78 nM | EC50 (Plasmodium falciparum [9]): 0.78 nM | EC50 (Plasmodium falciparum [10]): 0.78 nM

COc1ccc(C(=O)/C=C/c2cc(N3CCOCC3)c3ccccc3n2)cc1
Kd [4]: 4600 nM

Clc1ccc2c(N3CC(CN4CCCC4)N=N3)ccnc2c1 (stereo not given) [listing 2 of 2 here]
IC50 (Plasmodium falciparum [1]): 4560 nM

Cc1ccc2nc(SCc3ccccc3)c(/C=[N+](\[O-])c3ccccc3)cc2c1
fold change (FC) (RPMI-8226 [5]): 4 | IC50 (RPMI-8226 [6]): 450 nM | fold change (FC) (RPMI-8226 [7]): 12 | IC50 (HCT-116): 450 nM

Clc1ccc2c(N3CC(CN4CCCCC4)N=N3)ccnc2c1 (stereo not given) [listing 2 of 2 here]
IC50 (Plasmodium falciparum [1]): 4560 nM

C[C@@H]1CCC2[C@@H](C)[C@H](OC(=O)CCC(=O)NCCNc3ccnc4cc(Cl)ccc34)O[C@@H]3O[C@@]4(C)CC[C@@H]1[C@@]23OO4 (stereo not given in full)
EC50 (Plasmodium falciparum [8]): 0.78 nM | EC50 (Plasmodium falciparum [9]): 0.78 nM | EC50 (Plasmodium falciparum [10]): 0.78 nM

COc1ncc(-c2cnc3c(C(=O)O)ccc(C(=O)O)c3c2)c(OC)n1
inhibition [14]: 90%

NS(=O)(=O)c1ccc(-c2cnc3c(C(=O)O)ccc(C(=O)O)c3c2)cc1
inhibition [14]: 0%

C[C@@H]1CC[C@H]2[C@@H](C)C(=O)O[C@@H]3O[C@@]4(C)CC[C@@H]1[C@]32OO4 [ARTEMISININ]
EC50 (Plasmodium falciparum [8]): 5.4 nM | EC50 (Plasmodium falciparum [9]): 5.4 nM | EC50 (Plasmodium falciparum [10]): 5.4 nM

CC(=O)c1cccc(C#Cc2c(C3CC3)nc3ccccc3c2-c2ccc(F)cc2)c1
IC50 [3]: 450 nM

CCN1CCN(C(=S)SCCCN(c2cc(OC)c(OC)c(OC)c2)S(=O)(=O)c2cccc3cccnc23)CC1
IC50 (SNU-423): 700 nM | IC50 (MDA-MB-453): 700 nM | IC50 (RT-112): 700 nM

COc1cc2c(Oc3ccc(NS(=O)(=O)c4c(F)cccc4F)cc3F)ccnc2cc1OCCCN1CCN(C)CC1
IC50 [2]: 27 nM

COc1cc(-c2cnc3c(C(=O)O)ccc(C(=O)O)c3c2)ccc1F
inhibition [14]: 0%

O=C(/C=C/c1cc(N2CCOCC2)c2cc([N+](=O)[O-])ccc2n1)c1ccc(O)cc1
Kd [4]: 4600 nM

COc1ccc(F)cc1-c1cnc2c(C(=O)O)ccc(C(=O)O)c2c1
inhibition [14]: 0%

COC[C@H]1OC(=O)c2coc3c2[C@@]1(C)C1=C(C3=O)[C@@H]2CCC(=O)[C@@]2(C)C[C@H]1OC(C)=O [WORTMANNIN]
IC50 [3]: 750 nM

COc1cc(N(CCCSC(=S)N2CCN(C)CC2)S(=O)(=O)c2cccc3cccnc23)cc(OC)c1OC
IC50 (SNU-423): 700 nM | IC50 (MDA-MB-453): 700 nM | IC50 (RT-112): 700 nM

CC(O)(CS(=O)(=O)c1ccc(F)cc1)C(=O)Nc1ccc(C#N)c(C(F)(F)F)c1 (stereo not given) [BICALUTAMIDE]
IC50 (PC-3): 1300 nM

COc1cc(-c2cnc3c(C(=O)O)ccc(C(=O)O)c3c2)c(OC)nn1
inhibition [14]: 0%

COc1ccc2nc(Cl)c(C3CC(c4ccc(C)cc4)=NN3c3nc(-c4ccc(C)cc4)cs3)cc2c1 (stereo not given)
IC50 (DLD-1): 38 nM | IC50 (MCF7): 38 nM | IC50 (HeLa): 38 nM

O=C(O)c1ccc(-c2cnc3c(C(=O)O)ccc(C(=O)O)c3c2)s1
inhibition [14]: 0%

— ChEMBL document CHEMBL5230155, “Recent contributions of quinolines to antimalarial and anticancer drug discovery research” (Eur J Med Chem, 2021)
